Data on three molecules can be found in US20220143003A1, “COMPOSITIONS AND METHODS TO TREAT NON-ALCOHOLIC FATTY LIVER DISEASES (NAFLD)” (Coherus Biosciences, Inc., priority 2018, published 2022).

“Also recorded” adds a separate entry of the source.

Holding throughout (format): in vivo, male C57BL/6JRj mice
In experiment [1] the test system is DIO-NASH mice. Briefly: Absolute and relative liver weight at termination. The following applies: for Absolute liver weight at termination / Liver weight at termination, relative (% of body weight): group mean. As to the method: Animals were terminated after 12 weeks of treatment in a non-fasting state. Animals were put under isoflurane anesthesia, the abdominal cavity was opened, and cardiac blood was drawn directly into a Vacuette of the right dimension and anticoagulant and mixed by inversion 5 times. Blood was placed at 4° C. until centrifugation at 3000×g for 10 minutes at 4° C. The plasma supernatants were transferred to new tubes and immediately frozen on dry ice and stored at −80° C. Upon necropsy, the whole liver was collected and weighed. The liver was sampled for histological and biochemical analyses as described below.
Absolute liver weight at termination (g). Values expressed as mean of n=12-14+SEM.
Liver weight at termination in relative (% of body weight) values. Values expressed as mean of n=12-14+SEM.

In experiment [2] the test system is DIO-NASH mice. Briefly: NAFLD Activity Score (steatosis, lobular inflammation, ballooning), pre- to post-biopsy histopathological scoring. To be noted: for NAFLD activity score (NAS), effect in words: 12 weeks of treatment, compared to NASH vehicle+vehicle, summary of data; for Delta change in NAFLD activity score from pre- to post biopsy: group mean. As for the experimental part:
Three weeks prior to study start, a pre-biopsy was performed to confirm NASH and for study inclusion of NASH-affected mice only. Briefly, mice were anesthetized with isoflurane (2-3%) in 100% oxygen. A small abdominal incision was made in the midline and the left lateral lobe of the liver exposed. A cone shaped wedge of liver tissue (approximately 50 mg) was excised from the distal portion of the lobe and fixated in 10% neutral buffered formalin (4% formaldehyde) for histopathological analyses. The cut surface of the liver was instantly electro-coagulated using bipolar coagulation (ERBE VIO 100 electrosurgical unit). The liver was returned to the abdominal cavity, the abdominal wall sutured, and the skin closed with staplers. For post-operative recovery, mice received carprofen (5 mg/ml-0.01 ml/10 g) administered subcutaneously on the day of operation and on post-operation day 1 and 2.
For Hematoxylin & Eosin (HE) staining, slides were incubated in Mayer's Hematoxylin, washed in tap water, stained in Eosin Y solution, […], mounted with Pertex and allowed to dry before scanning.
For scoring of NAFLD Activity Score (NAS) and fibrosis stage, HE and Sirius red stained liver sections, respectively, were scored by a histopathology specialist as outlined in Table 10 using the clinical criteria outlined by Kleiner et al. (2005). Total NAS score represents the sum of scores for steatosis, lobular inflammation, and ballooning degeneration scores, and ranges from 0-8.
For steatosis score, percentage refers to percentage of hepatocytes affected by steatosis as evaluated on low to medium power examination.
For lobular inflammation, inflammation is evaluated by counting the number of inflammatory foci per field using a 200× magnification (min. 5 fields per animal). A focus is defined as a cluster, not a row, of >3 inflammatory cells. Acidophil bodies are not included in this assessment, nor is portal inflammation.
For hepatocellular ballooning degeneration, degenerated hepatocytes with a cleared cytoplasm, enlargement, swelling, rounding and reticulated cytoplasm were identified.
Delta change in NAFLD activity score from pre-to post biopsy. Values expressed as mean of n=12-14+SEM.

In experiment [3] the test system is DIO-NASH mice. Put plainly: 4 h fasted blood glucose. To be noted: group mean.
Experiment [4] has as its system DIO-NASH mice. Put plainly: Plasma aspartate transaminase (AST) at termination. To be noted: group mean. As for the experimental part: (§1) For plasma biochemistry, tail blood was drawn directly through the capillary of a Microvette/Vacuette of the right dimension and anticoagulant and mixed by inversion 5 times. Blood was placed at 4° C. until centrifugation at 3000×g for 10 minutes at 4° C. The plasma supernatants were transferred to new tubes and immediately frozen on dry ice and stored at −80° C. until analysis.
(§2) Mouse insulin was measured in single determinations using the MSD platform (Meso Scale Diagnostics).
Plasma aspartate transaminase (AST) at termination (U/L). Values expressed as mean of n=11-14+SEM.

Experiment [5] relates to DIO-NASH mice. Briefly: Plasma alanine transaminase (ALT) at termination. To be noted: for Plasma alanine transaminase (ALT) at termination: group mean. As for the experimental part:
as §1, §2
Plasma alanine transaminase (ALT) at termination (U/L). Values expressed as mean of n=11-14+SEM.

Experiment [6] concerns DIO-NASH mice. Put plainly: Plasma triglycerides (TG) at termination. To be noted: group mean. As for the experimental part:
as §1, §2
Plasma triglycerides (TG) at termination (mmol/L). Values expressed as mean of n=12-14+SEM.

Experiment [7] has as its system DIO-NASH mice. Put plainly: Liver total cholesterol (TC) at termination. To be noted: group mean. As to the method: The liver post-biopsy for histological analyses was removed by dissection from the left lateral lobe, fixated in 4% formalin for 20-24 h, and subsequently embedded in paraffin. Liver biopsies for liver triglycerides and total cholesterol were dissected from the medial lobe, snap frozen in liquid nitrogen, and stored at −80° C., while liver biopsies for hydroxyproline were dissected from the caudal lobe (the entire lobe), snap frozen in liquid nitrogen and stored at −80° C. Finally, a liver sample for RNA isolation and gene expression analysis was dissected from the left lateral lobe, snap frozen in liquid nitrogen, and stored at −80° C. until processing.
For liver TG and TC quantification, samples were homogenized, and TG and TC extracted in 5% NP-40 by heating twice to 90° C. The samples were centrifuged, and the TG and TC content measured in the supernatant, using commercial kits (Roche Diagnostics) on the Cobas c501 autoanalyzer according to the manufacturer's instructions.
Relative (mg/g of liver) liver total cholesterol (TC) at termination. Values expressed as mean of n=12-14+SEM.
Total (mg/liver) liver total cholesterol (TC) at termination. Values expressed as mean of […]+SEM.

The mark [8] stands for this setting: CHS-131 High dose (alone or combined).
[9] abbreviates: DIO-NASH mice, compared to vehicle only, non-significant.
The mark [10] stands for this setting: at baseline, CHS-131 High dose (alone or combined).
Where [11] appears, read: week 12, CHS-131 High dose (alone or combined).

In the case of `O=S(=O)(Nc1cc(Cl)c(Oc2cnc3ccccc3c2)c(Cl)c1)c1ccc(Cl)cc1Cl` [CHS-131], the “Relative liver weight, effect in words” value with DIO-NASH mice [1] (DIO-NASH mice, compared to DIO mice administered vehicle only) is “No difference”. Further, the “Absolute liver weight at termination” value in the experiment with DIO-NASH mice [1] (setting [8]) worked out at 3.14 g; with DIO-NASH mice [1] (CHS-131 Low dose) it was 3.21 g. In addition, the figures for the “Liver weight at termination, relative (% of body weight)” value in the experiment with DIO-NASH mice [1] (setting [8]) and in the experiment on DIO-NASH mice [1] (CHS-131 Low dose) were 8.15 % of body weight and 8.4 % of body weight, respectively. Also, the “NAFLD activity score (NAS), effect in words” value with DIO-NASH mice [2] (DIO-NASH mice) was “reduced NAS; also recorded: significant improvement”. Moreover, the “Improvement of average NAFLD activity score (NAS) post-baseline” value in the experiment with DIO-NASH mice [2] (DIO-NASH mice, CHS-131 monotherapy, significant, on average) is “more than 1 unit”. This molecule also yielded an Improvement of ballooning in the experiment on DIO-NASH mice [2] (setting [9]) of around 10%. In the experiment with DIO-NASH mice [2] (setting [9]), the Improvement of steatosis result is “approximately 30%”. For the same molecule, in the experiment on DIO-NASH mice [2] (DIO-NASH mice, compared to vehicle only, non-significant (p=0.07)), the “Improvement of lobular inflammation” value was 50%. The “NAFLD score: mice with improvement” value with DIO-NASH mice [2] (DIO-NASH mice, post- vs pre-study biopsy, significant) is 7/13. The results for the “Delta change in NAFLD activity score from pre- to post biopsy” value (shortened to “Delta change in NAFLD activity score”) in the experiment on DIO-NASH mice [2] (setting [8]) and in the experiment on DIO-NASH mice [2] (CHS-131 Low dose) were −0.77 and −0.23, respectively. The “4 h fasted blood glucose” value in the experiment with DIO-NASH mice [3] (setting [10]) stood at 7.68 mmol/L; in the experiment with DIO-NASH mice [3] (at baseline, CHS-131 Low dose), 8.09 mmol/L; with DIO-NASH mice [3] (setting [11]), 7.01 mmol/L; in the experiment on DIO-NASH mice [3] (week 12, CHS-131 Low dose), 7.31 mmol/L. In addition, the “Delta 4 h fasted blood glucose week 12 vs baseline” value in the experiment on DIO-NASH mice [3] (setting [8]) is -0.675 mmol/L; with DIO-NASH mice [3] (CHS-131 Low dose), -0.787 mmol/L. The figures for the “Plasma aspartate transaminase (AST) at termination” value (“Plasma aspartate transaminase (AST)” below) with DIO-NASH mice [4] (setting [8]) and in the experiment with DIO-NASH mice [4] (CHS-131 Low dose) were 166 U/L and 189 U/L, respectively. The “Plasma ALT, effect in words” value in the experiment with DIO-NASH mice [5] (DIO-NASH mice, 12 weeks of treatment, summary of data) is given as “reduced”. The “Decrease of plasma alanine aminotransferase (ALT)” value with DIO-NASH mice [5] (DIO-NASH mice, compared to DIO mice administered vehicle only (placebo)) came out at 30%. The “Plasma alanine transaminase (ALT) at termination” value (“Plasma alanine transaminase (ALT)” for short) is 140 U/L in the experiment with DIO-NASH mice [5] (setting [8]) and 163 U/L in the experiment with DIO-NASH mice [5] (CHS-131 Low dose). Besides, the entries for the “Plasma triglycerides (TG) at termination” value in the experiment with DIO-NASH mice [6] (setting [8]) and in the experiment on DIO-NASH mice [6] (CHS-131 Low dose) were 0.651 mmol/L and 0.715 mmol/L, respectively. Moreover, the “Relative liver total cholesterol (TC) at termination” value (“Relative liver total cholesterol” below) with DIO-NASH mice [7] (setting [8]) is 12.3 mg/g of liver; in the experiment with DIO-NASH mice [7] (CHS-131 Low dose), 12.4 mg/g of liver. In addition, the “Total liver total cholesterol (TC) at termination” value (“Total liver total cholesterol (TC)” below) with DIO-NASH mice [7] (setting [8]) came out at 39.2 mg/liver; in the experiment on DIO-NASH mice [7] (CHS-131 Low dose), 39.6 mg/liver.
On to `CSc1ccc(C(=O)/C=C/c2cc(C)c(OC(C)(C)C(=O)O)c(C)c2)cc1` [Elafibranor, reference compound], for which, in the experiment with DIO-NASH mice [1] (setting [8]), the “Absolute liver weight at termination” value was 4.2 g and the “Liver weight at termination, relative (% of body weight)” value is reported as 13.1 % of body weight. For the same molecule, the “Delta change in NAFLD activity score” value in the experiment with DIO-NASH mice [2] (setting [8]) was −2.00. Moreover, in the experiment on DIO-NASH mice [3] (setting [10]), the “4 h fasted blood glucose” value turned out to be 7.68 mmol/L. In addition, the “4 h fasted blood glucose” value with DIO-NASH mice [3] (setting [11]) worked out at 6.41 mmol/L. In addition, the “Delta 4 h fasted blood glucose week 12 vs baseline” value in the experiment with DIO-NASH mice [3] (setting [8]) is -1.27 mmol/L. Besides, the “Plasma aspartate transaminase (AST)” value in the experiment on DIO-NASH mice [4] (setting [8]) was determined as 205 U/L. Besides, in the experiment with DIO-NASH mice [5] (setting [8]), the “Plasma alanine transaminase (ALT)” value is listed as 144 U/L. Further, the “Plasma triglycerides (TG) at termination” value in the experiment with DIO-NASH mice [6] (setting [8]) was 0.525 mmol/L. In addition, in the experiment on DIO-NASH mice [7] (setting [8]), the “Relative liver total cholesterol” value is on record as 8.87 mg/g of liver and the “Total liver total cholesterol (TC)” value worked out at 38.3 mg/liver.
With `OC[C@H]1O[C@@H](c2ccc(Cl)c(Cc3ccc(O[C@H]4CCOC4)cc3)c2)[C@H](O)[C@@H](O)[C@@H]1O` [Empagliflozin, reference compound], in the experiment on DIO-NASH mice [1] (setting [8]), the “Absolute liver weight at termination” value stood at 3.37 g and the “Liver weight at termination, relative (% of body weight)” value is 8.48 % of body weight. In the experiment on DIO-NASH mice [2] (DIO-NASH mice), the “NAFLD activity score (NAS), effect in words” value is on record as “positive trend for improvement”. Also, the “Delta change in NAFLD activity score” value with DIO-NASH mice [2] (setting [8]) was −0.31. In the experiment with DIO-NASH mice [3] (setting [10]), the “4 h fasted blood glucose” value was determined as 7.71 mmol/L. Besides, the “4 h fasted blood glucose” value in the experiment on DIO-NASH mice [3] (setting [11]) is on record as 6.69 mmol/L. The “Delta 4 h fasted blood glucose week 12 vs baseline” value in the experiment with DIO-NASH mice [3] (setting [8]) is -1.03 mmol/L. The “Plasma aspartate transaminase (AST)” value with DIO-NASH mice [4] (setting [8]) is given as 230 U/L. Further, the “Plasma alanine transaminase (ALT)” value in the experiment on DIO-NASH mice [5] (setting [8]) is listed as 216 U/L. Further, the “Plasma triglycerides (TG) at termination” value in the experiment on DIO-NASH mice [6] (setting [8]) is 0.738 mmol/L. Besides, in the experiment with DIO-NASH mice [7] (setting [8]), the “Relative liver total cholesterol” value is 12.6 mg/g of liver and the “Total liver total cholesterol (TC)” value was determined as 43.2 mg/liver.
